Data on three molecules can be found in patent US20250228950A1 (priority 2017, published 2025).

The subject of data set [1] is MDA-MB-231 breast cancer cells. The data set can be described thus: MDA-MB-231 cell growth inhibition / cytotoxicity assay, incl. pH 6.2 vs pH 7.4. Conditions: for IC50: Homo sapiens; for cell growth inhibitory activity / pH-dependent cytotoxicity: MDA-MB-231 cells; for cell growth inhibitory activity: FIG. 3 legend; for pH-dependent cytotoxicity: pH 6.2 over pH 7.4.
The subject of a further data set is EMT-6 cells. The data set can be described thus: EMT-6 cytotoxicity at pH 6.2 vs pH 7.4. Type of data set: cell-based.

Structures are written as SMILES.

In the case of `NP(=O)(OCCSSCCCc1c(F)c(F)c(O)c(F)c1F)N(CCCl)CCCl` (centres unmarked) [YU252213], the IC50 in data set [1] (MDA-MB-231, pH 6.2) is 41.4 µM; in data set [1] (MDA-MB-231, pH 7.4), > 100 µM. For the same molecule, the “cell growth inhibitory activity” value in data set [1] is listed as “shows cell growth inhibitory activity”. In addition, in data set [1], the pH-dependent cytotoxicity entry is “preferential cytotoxicity in acidic conditions”.

As for `O=P1(N(CCCl)CCCl)NCCCO1` (centres unmarked) [Cyclophosphamide, reference compound], the “cell growth inhibitory activity” value in data set [1] is “remains inactive”.

For the molecule `O=C(Nc1ccc(N(CCCl)CCCl)cc1)OCCSSCCCc1c(F)c(F)c(O)c(F)c1F` [YU252353], the pH-dependent cytotoxicity entry in data set [1] is given as “preferential cytotoxicity in acidic conditions”. In the data set with EMT-6 cells (Mus musculus, EMT6, tumor pH 6.2), this molecule returned an IC50 of 28.7 µM. Moreover, the “toxicity in this assay” value in the data set on EMT-6 cells (normal physiological pH 7.4) was “no detectable toxicity”.
